Results taken from patent US20130338092A1, “COMPOUNDS AND METHODS FOR TARGETING LEUKEMIC STEM CELLS” (The Broad Institute, Inc., priority 2011, published 2013).
“Also recorded” adds a separate entry of the source. Where two headings read alike, the source gives them in different places.

Experiments:
[1] = system: normal HSPCs; experiment: Normal HSPC coculture on primary MSC stroma
Method: The material was cleaned, crushed and sequentially passed through 100 and 70 μM filters (Falcon). […] The biotin-labeled cells were spun down, resuspended in 0.5% FBS in PBS, and incubated for 15-30 minutes at 4° C. with agitation with 1 mL of Dynabead M-280 streptavidin-linked magnetic beads per 4 mice. The bead-linked cells were depleted using magnetic separation and rinsed once. The lineage- and CD48-depleted cell fraction was labeled with streptavidin-APC-Cy7 antibody from BD Biosciences and c-kit-APC, Sca-1-FITC, CD48-Pacific Blue, and CD150 PE-Cy7 antibodies from eBioscience. DsRed-positive lineage-Sca-1+c-kit+CD48− HSCs were sorted using a FACS DiVa or FACS ARIA (BD Biosciences).
A total of 20 μL of 20 μg/mL fibronectin (Millipore) in PBS was added to each well of a 384-well clear-bottomed black tissue-culture treated plate (Corning) and incubated for 30-120 minutes at 33° C. or 37° C. […] The fibronectin solution was removed from each well using a 24-channel wand aspirator; then 30 μL of BMSC solution was added to plate 2000 BMSCs/well. […] Each plate was covered with a sterile rayon breathable membrane (VWR) and plastic lid, and then spun at 500 rpm (approximately 60× gravity) with slow braking. The plates were incubated at room temperature for 60-90 minutes before incubation at 33° C. with 5% CO2 for 3 days prior to HSC addition.
The sorted HSCs, SLAMs and progenitor cells were resuspended in phenol-red free alpha-MEM with 20% FBS and diluted to 10,000 cells/mL. A total of 20 μL of cell solution containing 200 hematopoietic cells was added to each well using a multichannel pipettor or liquid-dispensing system. Each plate was covered with a sterile rayon breathable membrane (VWR) and plastic lid, and then spun at 500 rpm (approximately 60×gravity) with slow braking. The plates were incubated at room temperature for 60-90 minutes before incubation at 33° C. with 5% CO2 overnight prior to compound or cytokine addition.
Image analysis was performed using MetaXpress software from MDC and CellProfiler software from the Broad Institute of Harvard and MIT.
Compound addition and incubation was performed as described for the LSC coculture screen above, but without a media change or readdition of the compound.
The selected set was screened in 8-point dose against both normal HSPCs with a high number of replicates (6) and LSC-enriched leukemia cells, each cocultured on primary MSCs.

[2] = system: LSC-enriched leukemia cells (MLL-AF9); experiment: Leukemia coculture assay on primary MSC stroma (cobblestoning readout); type: cell-based, murine; conditions: for leukemia-selective activity in coculture vs normal HSPCs: primary MSC stroma
Method: Whole bone marrow were harvested from C57/B16 actin-dsRed mice (006051, Jackson Labs), subjected to red blood cell lysis (Qiagen), then granulocyte-macrophage progenitors (GMPs) were isolated by Fluorescence-activated cell sorting (FACsAria, Becton Dickinson). GMPs were spinfected twice (2500 rpm, 90 min, 37 C) in the presence of mIL3 (10 ng/ml, Peprotech), mIL6 (10 ng/ml, Peprotech), and mSCF (10 ng/ml, Peprotech) with pMSCV-MLL-AF9-Neo virus then transplanted into lethally irradiated C57/B16 recipients. After disease onset, the spleens were harvested and transplanted into sublethally irradiated secondary recipients. Subsequent transplantation of bulk spleen cells from leukemic secondary mice was repeated twice to generate leukemic GMPs from quaternary transplant leukemic mouse bone marrow.
Long bones and hips from moribund leukemic mice were harvested, cleaned, crushed and sequentially passed through 100 and 70 μM filters (Falcon). The cells were RBC lysed (Qiagen) and stained in PBS+2% FBS (Omega). Antibodies included lineage markers CD4, CD8, Gr1, Mac1, IL-7R, and Ter119 (Caltag), c-kit (17-1172-83, eBioscience), Sca-1 (11-5981-82, eBioscience), CD34 (11-0341-85, eBioscience), and CD16/32 (25-0161-82, eBioscience). Hoechst 33258 (H21491, Invitrogen) was also used, to identify live cells. Cells were sorted on a FacsAria II (Becton Dickinson).
The humerii, tibiae, ilia, femurs, and spine were isolated from actin-GFP mice (000329, Jackson Lab) crushed using a mortar and pestle, washed in phosphate-buffered saline (PBS) without magnesium and calcium (Gibco) with 0.5% fetal bovine serum (FBS) (HyClone) and filtered through a 70-μm filter. Red blood cell lysis was performed with ammonium-chloride/potassium-chloride (ACK) lysing buffer (Lonza), the cells were resuspended in α-MEM (StemCell Technologies), 20% FBS (HyClone) and 1× Pen-Strep (CellGro), plated in 25 ml in 150-cm^2 tissue-culture flasks (three per mouse), and incubated at 33° C. with 5% CO2. After 2-3 days, the medium was replaced with fresh α-MEM with 20% FBS. After 8-14 days, the cells were rinsed, split by trypsinization (CellGro), pooled, filtered through a 70 μm filter, replated at 3-4 million cells per 150-cm^2 tissue-culture flask, and grown at 33° C. with 5% CO2 for 3-4 days until nearly confluent. The cells were trypsinized, filtered, and resuspended in 0.5% FBS in PBS with biotin-conjugated anti-mouse CD105 antibody (eBioscience) for 15-30 minutes at room temperature. The CD105-labeled cells were incubated with Dynabead M-280 streptavidin-linked magnetic beads (Invitrogen) for 15-30 minutes at 4° C. with agitation and isolated using magnetic separation and rinsed once. The CD105^+ cell fraction was replated at 1-2 million cells per 150-cm^2 tissue-culture flask and incubated at 33° C. with 5% CO2 for 2-3 days.
The MSCs were trypsinized, filtered, diluted in phenol-red-free alpha-MEM with 20% FBS, and plated (30 μl for a total of 2000 cells per well) on 384-well clear-bottomed black tissue-culture treated plate (3712, Corning) pretreated with fibronectin (Millipore). Plate covers (VWR) were added, the plates were spun and at 500 with slow braking, and the cells were incubated at room temperature for 60-90 minutes before incubation at 33° C. with 5% CO2 for 3 days prior to hematopoietic cell plating. […]

[3] = system: normal murine HSPCs; experiment: Triple coculture (LSCs and HSPCs on primary MSCs), normal HSPCs; conditions: read-out: Normal HSPC* IC50
Method: (§1) As in the original assay approach, treatment of these triple cocultures began one day after hematopoietic cell plating and was assessed 5 days later.
(§2) An in vitro therapeutic index was determined for each compound, a comparative measure of the potential for anti-LSC efficacy relative to the potential for dose-limiting toxicities to normal HSCs (myeloablation), or to normal progenitors (myelosuppression). Specifically, ratios were created using the IC50s for primary murine HSPCs in triple coculture as the numerator, and the IC50s for primary murine leukemia inhibition in triple coculture as the denominator, toward assessing the potential for HSC harm relative to LSC inhibition.

[4] = system: MLL-AF9 LSC; experiment: Triple coculture (LSCs and HSPCs on primary MSCs), leukemia cells; type: cell-based, murine; conditions: murine LSCs in triple coculture with HSPCs on MSCs
Method: as §1, §2

[5] = system: normal primary human CD34+ cells; experiment: Alamar Blue assay for human progenitor cell toxicity; conditions: for IC50: read-out: Normal Progenitor* IC50
Method: Normal G-CSF mobilized CD34+ cells (AllCells, LLC, Emeryville, Calif.), normal BM CD34 cells (MSKCC, New York, N.Y.) and cord blood CD34+ cells (New York Blood Center, New York) were previously frozen and thawed out before the proliferation assay was set up in 384-well plates. Briefly, 50 μl of IMDM medium containing 20% FBS (Gemini Bio-Product, West Sacramento, Calif.), 20 ng/ml of recombinant human Kit Ligand (rhKL), 20 ng/ml of rh-Interleukin-3 (rhIL-3), 20 ng/ml of rhG-CSF, 6 units/ml of rhEPO, 10-42-mercaptoethanol, 2 mM glutamine, 50 u/ml penicillin, 50 μg/ml streptomycin, 1,000 viable CD34+ cells in the presence of various doses of Broad compounds (drug-treated group) or 0.1% DMSO (control group) were incubated at 37° C. After 6 days, 5 μl of AlamaBlue (AbD Serotec, Raleigh, N.C.) was added to each well and further incubated overnight. The fluorescence signal was then measured with GeminiXS microplate reader (Molecular Devices, Sunnyvale, Calif.). Effect of small molecules to proliferation of CD34+ cells was reported as Relative fluorescent intensity (Relative Fluorescent Intensity=Fluorescent Intensity (drug-treated)/Fluorescent Intensity (Control).
Finally, experiments were performed to examine whether BRD7116 or lovastatic acid were likely to cause myelosuppression, a type of deleterious toxicity in patients resulting from harm to normal human hematopoietic progenitor cells. This consideration is especially important as conventional therapies currently used in the clinic have myelosuppressive toxicities that are dose-limiting. To this end, a hematopoietic progenitor assay was employed to compare the effects of BRD7116 and lovastatic acid to effects given by such known myelosuppressive compounds. In this assay, normal primary human CD34^+ cord blood cells were plated with cytokines in suspension, treated with compound for 7 days, and then examined for viability relative to DMSO treated controls.

[6] = Mus musculus, read-out: Normal IC50, HSPCs on primary MSC stroma, 8-point dose
[7] = Mus musculus, MLL-AF9, LSCs on primary MSC stroma, 8-point dose, read-out: Leukemia IC50
[8] = Mus musculus, read-out: Normal IC50, statins (acid form), HSPCs cocultured on primary MSC stroma
[9] = Mus musculus, MLL-AF9, statins (acid form), LSCs cocultured on primary MSC stroma, read-out: Leukemia IC50

COc1cc2c(cc1O)CC[C@@H]1[C@@H]2CC[C@]2(C)[C@@H](O)CC[C@@H]12 [2-Methoxy estradiol]
IC50 [1, 6]: > 20000 nM | IC50 [2, 7]: 77 nM | leukemia-selective activity in coculture vs normal HSPCs [2]: displayed leukemia selectivity

c1cc(CN2CCCNCCNCCCNCC2)ccc1CN1CCCNCCNCCCNCC1 [AMD3100]
leukemia-selective activity in coculture vs normal HSPCs [2]: showed selectivity for LSCs over HSPCs

Nc1ccn([C@@H]2O[C@H](CO)[C@@H](O)[C@@H]2O)c(=O)n1 [Ara-C]
IC50 ([3]; normal murine HSPCs in triple coculture with LSCs on primary MSCs): 5000 nM | IC50 [4]: 2500 nM | toxicity to hematopoietic progenitor cells ([5]; 7 days of exposure, viability relative to DMSO): kill progenitors; also recorded: displayed toxicity | IC50 ([5]; normal human hematopoietic progenitors, 7 days): 2500 nM

CC(C)c1c(C(=O)Nc2ccccc2)c(-c2ccccc2)c(-c2ccc(F)cc2)n1CC[C@@H](O)C[C@@H](O)CC(=O)O [Atorvastatin]
IC50 [1, 8]: > 20000 nM | IC50 [2, 9]: ≤ 1900 nM | leukemia-selective activity in coculture vs normal HSPCs [2]: selectively inhibited leukemia cobblestoning

CC[n+]1c(/C=C2\C=C(C)CC(C)(C)C2)oc2ccccc21 [BRD0638]
IC50 [1, 6]: > 20000 nM | IC50 [2, 7]: ≤ 10 nM

CC[n+]1c(/C=C2/C=C(C)CC(C)C2)sc2ccccc21 (stereo not drawn) [BRD1319]
IC50 [1, 6]: > 20000 nM | IC50 [2, 7]: ≤ 10 nM

CCOc1ccccc1NC(=O)C(C)Oc1ccc(OC)cc1 (stereo not drawn) [BRD1686]
IC50 [1, 6]: > 20000 nM | IC50 [2, 7]: 1420 nM

O=C(c1ccccc1)c1cc[n+](Cc2ccccn2)cc1 [BRD1856]
IC50 [1, 6]: > 20000 nM | IC50 [2, 7]: 813 nM

C[C@@H]1CN([C@@H](C)CO)C(=O)c2cccc(NC(=O)Nc3ccccc3)c2O[C@@H]1CN(C)Cc1ccc(C(=O)Nc2ccccc2N)cc1 [BRD6708]
IC50 [1, 6]: > 20000 nM | IC50 [2, 7]: 2140 nM

COc1cc2c(cc1OC)-c1c(C#N)c(-c3ccc(C)cc3)c(C(=O)c3cccs3)n1CC2 [BRD8404]
IC50 [1, 6]: > 20000 nM | IC50 [2, 7]: 149 nM

C[C@@H]1CN([C@@H](C)CO)C(=O)c2cccc(NC(=O)C3CCCCC3)c2O[C@@H]1CN(C)Cc1ccc(C(=O)Nc2ccccc2N)cc1 [BRD9608]
IC50 [1, 6]: ~20000 nM | IC50 [2, 7]: 699 nM

COCc1c(C(C)C)nc(C(C)C)c(/C=C/[C@@H](O)C[C@@H](O)CC(=O)O)c1-c1ccc(F)cc1 [Cerivastatin]
IC50 [1, 8]: > 20000 nM | IC50 [2, 9]: < 10 nM

COc1cccc2c1C(=O)c1c(O)c3c(c(O)c1C2=O)C[C@@](O)(C(C)=O)C[C@@H]3O[C@H]1C[C@H](N)[C@H](O)[C@H](C)O1 [Daunorubicin]
IC50 ([3]; Mus musculus): 50 nM | IC50 ([5]; Homo sapiens, 168 h): 20 nM

CC(C)n1c(/C=C/C(O)CC(O)CC(=O)O)c(-c2ccc(F)cc2)c2ccccc21 (stereo not drawn) [Fluvastatin]
IC50 [1, 8]: > 20000 nM | IC50 [2, 9]: 27.9 nM

C=C1C(=O)O[C@@H]2[C@H]3O[C@]3(C)CC/C=C(\C)CC[C@@H]12 [Parthenolide]
IC50 [1, 6]: > 20000 nM | IC50 [2, 7]: 7500 nM

COc1cc(/C=C/C(=O)N2CCC=CC2=O)cc(OC)c1OC [Piperlongumine]
IC50 ([1]; Mus musculus, read-out: Normal IC50): ~20000 nM | IC50 ([2]; Mus musculus, MLL-AF9, read-out: Leukemia IC50): 379 nM

CC(C)c1nc(N(C)S(C)(=O)=O)nc(-c2ccc(F)cc2)c1/C=C/[C@@H](O)C[C@@H](O)CC(=O)O [Rosuvistatin]
IC50 ([1]; read-out: Normal IC50, statins (acid form), HSPCs cocultured on primary MSC stroma): > 20000 nM | leukemia-selective activity in coculture vs normal HSPCs [2]: selectively inhibited leukemia cobblestoning | IC50 ([2]; statins (acid form), LSCs cocultured on primary MSC stroma, read-out: Leukemia IC50): 1220 nM

CCC(C)(C)C(=O)O[C@H]1C[C@@H](C)C=C2C=C[C@H](C)[C@H](CC[C@@H]3C[C@@H](O)CC(=O)O3)[C@H]21 [Simvastatin]
IC50 [1, 8]: > 20000 nM | IC50 [2, 9]: ≤ 15 nM

Celastrol
IC50 ([1]; read-out: Normal IC50, HSPCs on primary MSC stroma, 8-point dose): > 20000 nM | IC50 ([2]; LSCs on primary MSC stroma, 8-point dose, read-out: Leukemia IC50): 102 nM
